Tests used:
E-selectin = experiment: Cell surface E-selectin (cell-based ELISA) in HUVEC pretreated with compound, then cytokines; set-up: species or system human; conditions: HUVEC pretreated 24 hours
Protocol: HUVEC were treated with vehicle control or various concentrations of compound B or compound C for 24 hours. Cells were washed and then stimulated with either 1 ng/ml TNF-α, 1 ng/ml IL-1β, or a combination of 1 ng/ml each of TNF-α, IL-1β, and IFN-γ for 4 hours. Cell surface expression of E-selectin was measured by cell-based ELISA.

Ceruloplasmin = Ceruloplasmin mRNA expression in mouse kidney (microarray); assay type: in vivo; conditions: single dose 100 mg/kg
Protocol: (§1) Compounds were generally administered orally by gavage or IV administration. Animals treated by oral gavage received a 4-10 ml/kg volume of either 0.5% carboxymethyl cellulose (CMC; Sigma-Aldrich, St. Louis Mo.) with or without 0.1% Polysorbate 80 (0 mg/kg/day) or varying doses of a compound of the present invention (e.g., a HIF prolyl hydroxylase inhibitor) in 0.5% CMC, with or without 0.1% Polysorbate 80, using various dosing regimens. Blood samples were collected at appropriate intervals during treatment from, e.g., tail vein (rats), or abdominal vein or cardiocentesis (mice or rats). Generally, animals were anesthetized with isoflurane and blood samples were collected into MICROTAINER serum separator tubes (Becton-Dickinson, Franklin Lakes N.J.). For measurement of serum components, the tubes were incubated at room temperature for 30 minutes, and then centrifuged at 8,000 rpm at 4° C. for 10 minutes. The serum fraction was then processed and analyzed for the presence of specific components, e.g., serum iron (assay performed by Quality Clinical Labs, Mountain View, Calif.). For determination of hematocrit, blood samples were collected into MICROTAINER EDTA-2K tubes (Becton-Dickinson); EDTA-blood was then drawn into 75 mm×1.1-1.2 mm I.D. capillary tubes (Chase Scientific Glass, Inc., Rockwood Tenn.) to approximately % length, one end of the tube was sealed with CRITOSEAL sealant (Sherwood Medical Company), and the tubes were centrifuged in a J-503M MICROHEMATOCRIT centrifuge (Jorgensen Laboratories, Inc., Loveland Colo.) at 12,000 rpm for 5 minutes. Hematocrit was read against a reader card. When indicated, complete blood count (CBC) analysis, including blood hemoglobin level, reticulocyte number, and hematocrit, was performed by Quality Clinical Labs (Mountain View, Calif.).
(§2) Swiss Webster male mice were treated as described above with a single dose of 0.5% CMC (Sigma-Aldrich) (0 mg/kg) or 100 mg/kg compound A. At 4, 8, 16, 24, 48, or 72 hours post-administration, animals were anesthetized, sacrificed, and tissue samples of kidney, liver, brain, lung, and heart were isolated and stored in RNALATER solution (Ambion) at −80° C. Alternatively, animals were treated to 4 consecutive daily doses of 0.5% CMC (0 mg/kg/day), 7.5 mg/ml compound A in 0.5% CMC (30 mg/kg/day), or 25 mg/ml compound A in 0.5% CMC (100 mg/kg/day). Four hours after administration of the final dose, animals were anesthetized, sacrificed, and approximately 150 mg of liver and each kidney were isolated and stored in RNALATER solution (Ambion) at −20° C.
(§3) RNA isolation was carried out using the following protocol. A section of each organ was diced, 875 μl of RLT buffer (RNEASY kit; Qiagen Inc., Valencia Calif.) was added, and the pieces were homogenized for about 20 seconds using a rotor-stator POLYTRON homogenizer (Kinematica, Inc., Cincinnati Ohio). The homogenate was micro-centrifuged for 3 minutes to pellet insoluble material, the supernatant was transferred to a new tube and RNA was isolated using an RNEASY kit (Qiagen) according to the manufacturer's instructions. The RNA was eluted into 80 μL of water and quantitated with RIBOGREEN reagent (Molecular Probes, Eugene Oreg.). The absorbance at 260 and 280 nm was measured to determine RNA purity and concentration.
(§4) Alternatively, tissue samples were diced and homogenized in TRIZOL reagent (Invitrogen Life Technologies, Carlsbad Calif.) using a rotor-stator POLYTRON homogenizer (Kinematica). Homogenates were brought to room temperature, 0.2 volumes chloroform was added, and samples were mixed vigorously. Mixtures were incubated at room temperature for several minutes and then were centrifuged at 12,000 g for 15 min at 4° C. The aqueous phase was collected and 0.5 volumes of isopropanol were added. Samples were mixed, incubated at room temperature for 10 minutes, and centrifuged for 10 min at 12,000 g at 4° C. […]

sproutin = experiment: Intestinal sproutin mRNA in rats of ACD Series 2 (microarray); assay type: in vivo, rat
Protocol: At week 6 following administration of compound A in anemic animals (40 mg/kg, twice a week), microarray analysis was performed to examine expression of genes encoding proteins involved with iron transport and absorption in intestine. Microarray analysis was performed using methods described above, using The Rat Genome 230A array (Affymetirx), which represents all sequence in the Rat Unigene database build 99 (National Center for Biotechnology Information, Bethesda, Md.), including approximately 4,699 well-characterized rat genes and approximately 10,467 EST sequences and approximately 700 non-EST sequences.

Hepcidin = Hepcidin mRNA expression in mouse liver (microarray); assay type: in vivo
Protocol: as §1, §2, §3, §4

SMILES	induction of cell surface E-selectin expression (E-selectin; then 1 ng/ml TNF-α or 1 ng/ml IL-1β for 4 hours)	cell surface E-selectin expression (E-selectin; then TNF-α, IL-1β and IFN-γ, 1 ng/ml each, 4 hours)	Ceruloplasmin (relative mRNA levels) (Ceruloplasmin; 4 hours)	Ceruloplasmin (relative mRNA levels) (Ceruloplasmin; 8 hours)	Ceruloplasmin (relative mRNA levels) (Ceruloplasmin; 16 hours)	Ceruloplasmin (relative mRNA levels) (Ceruloplasmin; 24 hours)	Ceruloplasmin (relative mRNA levels) (Ceruloplasmin; 48 hours)	Ceruloplasmin (relative mRNA levels) (Ceruloplasmin; 72 hours)	intestinal expression of sproutin (sproutin; anemic rats, 40 mg/kg twice a week, week 6)	intestinal expression of mRNA for sproutin (sproutin; control rats)	Hepcidin (relative mRNA levels) (Hepcidin; animal study I, multi high dose)	Hepcidin (relative mRNA levels) (Hepcidin; animal study II, multi high dose)	Hepcidin (relative mRNA levels) (Hepcidin; animal study II, multi low dose)	Hepcidin (relative mRNA levels) (Hepcidin; animal study III, 4 hour)	Hepcidin (relative mRNA levels) (Hepcidin; animal study III, 8 hour)	Hepcidin (relative mRNA levels) (Hepcidin; animal study III, 16 hour)
O=C(O)CNC(=O)c1ncc2cc(Oc3ccccc3)ccc2c1O [Compound B, [(4-Hydroxy-7-phenoxy-isoquinoline-3-carbonyl)-amino]-acetic acid]	inhibited the induction of cell surface E-selectin expression	decreased E-selectin expression	–	–	–	–	–	–	–	–	–	–	–	–	–	–
O=C(O)CNC(=O)c1nc(Cl)c2ccccc2c1O [Compound A, [(1-Chloro-4-hydroxy-isoquinoline-3-carbonyl)-amino]-acetic acid]	–	–	1.16	1.39	1.22	2.45	1.44	2.10	increased expression of both NRAMP2 and sproutin in intestine	increased intestinal expression	0.275	0.703	0.129	0.672	0.305	0.119
